# Assay results as given in ChEMBL document CHEMBL5352439, “Design, synthesis, biological evaluation and molecular docking study of novel urea-based benzamide derivatives as potent poly(ADP-ribose) polymerase-1 (PARP-1) inhibitors” (Eur J Med Chem, 2022).
# Columns and labels:
# MDA-MB-231 [1] = experiment: Antiproliferative activity against human MDA-MB-231 cells assessed as inhibition of cell growth at 20 uM incubated for 48 hrs by MTT assay; format: functional
# HCT-116 [2] = experiment: Antiproliferative activity against human HCT-116 cells assessed as inhibition of cell growth at 20 uM incubated for 48 hrs by MTT assay; format: functional
# HeLa [3] = experiment: Antiproliferative activity against human HeLa cells assessed as inhibition of cell growth at 20 uM incubated for 48 hrs by MTT assay; format: functional
# A549 [4] = experiment: Antiproliferative activity against human A549 cells assessed as inhibition of cell growth at 20 uM incubated for 48 hrs by MTT assay; format: functional
# A-375 [5] = experiment: Antiproliferative activity against human A-375 cells assessed as inhibition of cell growth at 20 uM incubated for 48 hrs by MTT assay; format: functional
# MDA-MB-231 [6] = experiment: Antiproliferative activity against human MDA-MB-231 cells assessed as inhibition of cell growth incubated for 48 hrs by MTT assay; format: functional, cell-based; conditions: MDA-MB-231, 48 h
# HeLa [7] = experiment: Antiproliferative activity against human HeLa cells assessed as inhibition of cell growth incubated for 48 hrs by MTT assay; format: functional, cell-based
# A549 [8] = experiment: Antiproliferative activity against human A549 cells assessed as inhibition of cell growth incubated for 48 hrs by MTT assay; format: functional, cell-based; conditions: A549, 48 h
# A-375 [9] = experiment: Antiproliferative activity against human A-375 cells assessed as inhibition of cell growth incubated for 48 hrs by MTT assay; format: functional, cell-based; conditions: A-375, 48 h
# HCT-116 [10] = experiment: Potency index, ratio of olaparib IC50 to test compound IC50 for antiproliferative activity against human HCT-116 cells; format: functional
# L02 = experiment: Antiproliferative activity against human L02 cells assessed as inhibition of cell growth […] incubated for 48 hrs by MTT assay; format: functional, cell-based; conditions: L02, 48 h
# [11] = molecular target: Poly [ADP-ribose] polymerase 1 (Homo sapiens, UniProt P09874); experiment: Inhibition of PARP1 (unknown origin) by ELISA
# HCT-116 [12] = experiment: Inhibition of colony formation in human HCT-116 cells measured every 3 days for 14 days by crystal violet staining based assay; format: functional, cell-based; conditions: dose 1.88-15 µM, time 14.0 day
# HCT-116 [13] = experiment: Inhibition of colony formation in human HCT-116 cells at 7.5 uM measured every 3 days for 14 days by crystal violet staining based assay; format: functional; conditions: HCT-116, 336 h, time 14 day
# HCT-116 [14] = experiment: Inhibition of colony formation in human HCT-116 cells at 10 uM measured every 3 days for 14 days by crystal violet staining based assay; format: functional; conditions: HCT-116, 336 h, time 14 day
# HCT-116 [15] = experiment: Inhibition of cell migration in human HCT-116 cells at 10 uM incubated for 24 hrs by wound healing assay (reference value: 32.0 %); format: functional
# HCT-116 [16] = experiment: Inhibition of cell migration in human HCT-116 cells at 10 uM incubated for 48 hrs by wound healing assay (reference value: 42.8 %); format: functional
# HCT-116 [17] = experiment: Inhibition of cell migration in human HCT-116 cells at 20 uM incubated for 24 hrs by wound healing assay (reference value: 32.0 %); format: functional
# HCT-116 [18] = experiment: Inhibition of cell migration in human HCT-116 cells at 20 uM incubated for 48 hrs by wound healing assay (reference value: 42.8 %); format: functional
# HCT-116 [19] = experiment: Induction of cell cycle arrest in human HCT-116 cells assessed as accumulation of cells at G2/M phase at 10 to 40 uM incubated for 48 hrs by propidium iodide staining based flow cytometry analysis (reference value: 27.38 %); format: functional; conditions: dose 10-40 µM
# HCT-116 [20] = experiment: Induction of cell cycle arrest in human HCT-116 cells assessed as decrease in cells at G0/G1 phase at 10 to 40 uM incubated for 48 hrs by propidium iodide staining based flow cytometry analysis (reference value: 63.67 %); format: functional; design: scale not given: the % may be the effect or the level left; conditions: dose 10-40 µM
# HCT-116 [21] = experiment: Induction of apoptosis in human HCT-116 cells assessed as viable cells at 5 uM incubated for 48 hrs by Annexin-V and PI staining based flow cytometry analysis (reference value: 98.50%); format: functional; conditions: read-out: Activity
# HCT-116 [22] = experiment: Induction of apoptosis in human HCT-116 cells assessed as early apoptotic cells at 5 uM incubated for 48 hrs by Annexin-V and PI staining based flow cytometry analysis (reference value: 1.26%); format: functional
# HCT-116 [23] = experiment: Induction of apoptosis in human HCT-116 cells assessed as late apoptotic cells at 5 uM incubated for 48 hrs by Annexin-V and PI staining based flow cytometry analysis (reference value: 0.06%); format: functional
# HCT-116 [24] = experiment: Induction of apoptosis in human HCT-116 cells assessed as necrotic cells at 5 uM incubated for 48 hrs by Annexin-V and PI staining based flow cytometry analysis (reference value: 0.08%); format: functional
# HCT-116 [25] = experiment: Induction of apoptosis in human HCT-116 cells assessed as viable cells at 10 uM incubated for 48 hrs by Annexin-V and PI staining based flow cytometry analysis (reference value: 98.50%); format: functional; conditions: read-out: Activity
# HCT-116 [26] = experiment: Induction of apoptosis in human HCT-116 cells assessed as early apoptotic cells at 10 uM incubated for 48 hrs by Annexin-V and PI staining based flow cytometry analysis (reference value: 1.26%); format: functional
# HCT-116 [27] = experiment: Induction of apoptosis in human HCT-116 cells assessed as late apoptotic cells at 10 uM incubated for 48 hrs by Annexin-V and PI staining based flow cytometry analysis (reference value: 0.06%); format: functional
# HCT-116 [28] = experiment: Induction of apoptosis in human HCT-116 cells assessed as necrotic cells at 10 uM incubated for 48 hrs by Annexin-V and PI staining based flow cytometry analysis (reference value: 0.08%); format: functional
# HCT-116 [29] = experiment: Induction of apoptosis in human HCT-116 cells assessed as viable cells at 20 uM incubated for 48 hrs by Annexin-V and PI staining based flow cytometry analysis (reference value: 98.50%); format: functional; conditions: read-out: Activity
# HCT-116 [30] = experiment: Induction of apoptosis in human HCT-116 cells assessed as early apoptotic cells at 20 uM incubated for 48 hrs by Annexin-V and PI staining based flow cytometry analysis (reference value: 1.26%); format: functional
# HCT-116 [31] = experiment: Induction of apoptosis in human HCT-116 cells assessed as late apoptotic cells at 20 uM incubated for 48 hrs by Annexin-V and PI staining based flow cytometry analysis (reference value: 0.06%); format: functional
# HCT-116 [32] = experiment: Induction of apoptosis in human HCT-116 cells assessed as necrotic cells at 20 uM incubated for 48 hrs by Annexin-V and PI staining based flow cytometry analysis (reference value: 0.08%); format: functional
# Chain of Poly [ADP-ribose] polymerase 1 (P09874 whole entry): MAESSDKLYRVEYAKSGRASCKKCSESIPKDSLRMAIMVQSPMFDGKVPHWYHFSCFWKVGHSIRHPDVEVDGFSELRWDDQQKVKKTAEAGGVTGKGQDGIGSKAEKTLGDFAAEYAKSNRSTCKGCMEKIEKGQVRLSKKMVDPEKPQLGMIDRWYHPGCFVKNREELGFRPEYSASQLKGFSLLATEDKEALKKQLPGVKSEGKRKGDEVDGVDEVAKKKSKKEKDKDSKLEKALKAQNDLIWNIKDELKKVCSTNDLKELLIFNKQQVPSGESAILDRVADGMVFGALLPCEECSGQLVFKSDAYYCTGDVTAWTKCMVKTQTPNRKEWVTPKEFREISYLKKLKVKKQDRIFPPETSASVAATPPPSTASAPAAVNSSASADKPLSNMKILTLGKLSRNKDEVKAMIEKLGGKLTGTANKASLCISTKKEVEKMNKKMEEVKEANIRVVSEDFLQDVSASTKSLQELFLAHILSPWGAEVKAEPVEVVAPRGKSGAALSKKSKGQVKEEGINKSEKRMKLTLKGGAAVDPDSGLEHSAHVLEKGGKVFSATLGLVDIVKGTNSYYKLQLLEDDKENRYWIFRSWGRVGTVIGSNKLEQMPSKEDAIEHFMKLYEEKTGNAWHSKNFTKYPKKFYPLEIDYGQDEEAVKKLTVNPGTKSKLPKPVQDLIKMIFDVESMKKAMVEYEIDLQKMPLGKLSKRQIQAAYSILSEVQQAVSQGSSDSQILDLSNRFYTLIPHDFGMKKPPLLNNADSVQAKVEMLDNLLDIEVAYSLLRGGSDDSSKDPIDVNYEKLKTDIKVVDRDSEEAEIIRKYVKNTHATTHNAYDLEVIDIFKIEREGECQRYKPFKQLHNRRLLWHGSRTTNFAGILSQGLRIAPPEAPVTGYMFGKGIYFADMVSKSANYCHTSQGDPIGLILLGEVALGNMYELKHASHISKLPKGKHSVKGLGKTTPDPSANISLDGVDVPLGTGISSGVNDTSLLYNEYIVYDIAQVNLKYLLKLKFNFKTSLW
smiles,measurement,setting,value
NC(=O)c1ccccc1OCc1cccc(NC(=O)Nc2cccc(Br)c2)c1,inhibition at 20 µM,MDA-MB-231 [1],78.8%
same,inhibition at 20 µM,HCT-116 [2],90.7%
same,inhibition at 20 µM,HeLa [3],71.2%
same,inhibition at 20 µM,A549 [4],49.3%
same,inhibition at 20 µM,A-375 [5],80.8%
same,IC50,MDA-MB-231 [6],14.2 µM
same,IC50,HeLa [7],13.3 µM
same,IC50,A549 [8],26.4 µM
same,IC50,A-375 [9],19.5 µM
same,Ratio IC50,HCT-116 [10],8.93
same,IC50,L02,71.1 µM
same,IC50,[11],6.06 nM
same,inhibition,HCT-116 [12],Dose-Dependent Effect
same,inhibition at 7.5 µM,HCT-116 [13],100%
same,inhibition at 10 µM,HCT-116 [14],100%
same,inhibition at 10 µM,HCT-116 [15],23%
same,inhibition at 10 µM,HCT-116 [16],25.1%
same,inhibition at 20 µM,HCT-116 [17],12%
same,inhibition at 20 µM,HCT-116 [18],19.3%
same,Activity,HCT-116 [19],34.14%
same,Activity,HCT-116 [20],55.17%
same,viability at 5 µM,HCT-116 [21],94.6%
same,Activity,HCT-116 [22],4.09%
same,Activity,HCT-116 [23],0.77%
same,Activity,HCT-116 [24],0.55%
same,viability at 10 µM,HCT-116 [25],85%
same,Activity,HCT-116 [26],11.56%
same,Activity,HCT-116 [27],2.44%
same,Activity,HCT-116 [28],0.95%
same,viability at 20 µM,HCT-116 [29],58.5%
same,Activity,HCT-116 [30],40.51%
same,Activity,HCT-116 [31],0.89%
same,Activity,HCT-116 [32],0.15%
